Measured values taken from BindingDB's records for doi:10.1021/ml4000595 (Temple University, 2013).

Tests used:
[1] = biological target: T1, Cytochrome P450 11B2, mitochondrial (Homo sapiens, UniProt P19099); test: Inhibition of human CYP11B2 expressed in hamster V79MZ cells using [1,2-3H]11-deoxycorticosterone as substrate preincubated for 60 mins prior to substrate addition measured after 50 mins by HPLC analysis
T1 sequence (P19099 whole entry): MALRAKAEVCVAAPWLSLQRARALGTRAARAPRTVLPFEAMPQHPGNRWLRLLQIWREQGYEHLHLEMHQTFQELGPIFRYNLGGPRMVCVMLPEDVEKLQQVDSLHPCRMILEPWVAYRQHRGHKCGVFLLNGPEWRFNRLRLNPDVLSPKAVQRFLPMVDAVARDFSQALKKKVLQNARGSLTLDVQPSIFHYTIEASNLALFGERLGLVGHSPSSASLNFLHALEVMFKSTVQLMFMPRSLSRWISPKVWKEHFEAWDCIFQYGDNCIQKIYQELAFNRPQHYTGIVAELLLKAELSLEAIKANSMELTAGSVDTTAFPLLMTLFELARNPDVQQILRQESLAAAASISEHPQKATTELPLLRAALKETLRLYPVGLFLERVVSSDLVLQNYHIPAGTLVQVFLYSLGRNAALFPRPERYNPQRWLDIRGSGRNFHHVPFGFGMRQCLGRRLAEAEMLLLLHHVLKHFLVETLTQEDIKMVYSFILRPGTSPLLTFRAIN

[2] = biological target: T2, Cytochrome P450 11B1, mitochondrial (Homo sapiens, UniProt P15538); test: Inhibition of human CYP11B1 expressed in hamster V79MZ cells using [1,2-3H]11-deoxycorticosterone as substrate preincubated for 60 mins prior to substrate addition measured after 25 mins by HPLC analysis
T2 sequence (P15538 whole entry): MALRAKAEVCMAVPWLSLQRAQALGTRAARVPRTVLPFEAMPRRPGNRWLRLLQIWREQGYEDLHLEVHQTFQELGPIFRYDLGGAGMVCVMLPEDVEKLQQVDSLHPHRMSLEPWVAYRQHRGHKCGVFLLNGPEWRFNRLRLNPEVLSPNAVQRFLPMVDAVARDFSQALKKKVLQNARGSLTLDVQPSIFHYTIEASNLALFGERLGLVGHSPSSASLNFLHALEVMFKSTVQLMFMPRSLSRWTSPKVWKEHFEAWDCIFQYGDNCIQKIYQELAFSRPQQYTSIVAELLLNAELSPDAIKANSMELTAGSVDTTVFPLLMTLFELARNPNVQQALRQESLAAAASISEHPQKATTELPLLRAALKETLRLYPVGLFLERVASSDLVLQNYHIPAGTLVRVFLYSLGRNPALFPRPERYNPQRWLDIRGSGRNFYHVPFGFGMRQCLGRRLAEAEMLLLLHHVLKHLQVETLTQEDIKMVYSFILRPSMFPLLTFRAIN

IC50 [1] [nM] | IC50 [2] [nM] | SMILES
2110 | 101 | Nc1ccccc1-c1ccc(Cn2ccnc2)cn1
528 | 106 | Nc1ccc(-c2ccc(Cn3ccnc3)cn2)cc1
2080 | 42 | c1ccc2c(-c3ccc(Cn4ccnc4)cn3)cccc2c1
1160 | 40 | c1ccc2c(-c3ccc(Cn4ccnc4)cn3)csc2c1
3410 | 110 | Nc1cccc(-c2ccc(Cn3ccnc3)cn2)c1

The remaining lines, values behind:

SMILES | IC50 [1] [nM] | IC50 [2] [nM]
Oc1ccc(-c2ccc(Cn3ccnc3)cn2)cc1F | 237 | 17
c1csc(-c2ncccc2Cn2ccnc2)c1 | 251 | 16
Brc1ncccc1Cn1ccnc1 | 911 | 61
